According to patent publication US11492359B2, “Near-infrared nerve-sparing fluorophores” (OREGON HEALTH & SCIENCE UNIVERSITY, priority 2018, dated 2022):

Assay: UV-Vis absorption and fluorescence spectroscopy of the Oxazine library
Type: physicochemical
Conditions: for Extinction coefficient: Beer's Law plots; for Quantum yield: relative, references Oxazine 1, Oxazine 170, Rhodamine 101
Experimental: All reagents were purchased from Sigma Aldrich, Fisher Scientific, TCI, or Ark Pharm. Unless otherwise indicated, all commercially available starting materials were used directly without further purification. Analytical thin layer chromatography (TLC) was performed on Millipore ready-to-use plates with silica gel 60 (F254, 32-63 μm). Flash chromatography was performed on Sorbent Technologies silica gel for column chromatography or on a Biotage Isolera Flash System using SNAP Ultra cartridges. High-resolution mass spectra (HRMS) were measured on a ThermoElectron LTQ-Orbitrap high resolution mass spectrometer with a dedicated Accela HPLC system, or an Agilent 6244 time-of-flight LCMS with diode array detector VL+. LCMS and Purity Characterization Mass-to-charge ratio and purity of the Oxazine compounds were characterized on an Agilent 6244 time-of-flight tandem liquid chromatography mass spectroscopy (LCMS) with diode array detector VL+. Sample (10 μL) was injected into a C18 column (Poroshell 120, 4.6×50 mm, 2.7 micron), and eluted with a solvent system of A (H2O, 0.1% FA) and B (MeCN, 01.% FA) at 0.4 mL/min, from A/B=90/10 to 5/95 over 10 min, maintained at A/B=5/95 for additional 5 min. Ions were detected in positive ion mode by setting the capillary voltage at 4 kV and gas temperature at 350° C. Purity was calculated through area under the curve analysis of the absorbance at 254 nm. UV-Vis Absorption and Fluorescence Spectroscopy. UV-Vis spectra were collected with a Cary 50 UV-Vis spectrophotometer at room temperature, using a 1-cm quartz cuvette. Fluorescence spectra were collected on a Cary Eclipse fluorescence spectrophotometer (Agilent Technologies). All absorbance spectra were reference corrected. Extinction coefficient was calculated from Beer's Law plots of absorbance versus concentration. Fluorescence spectra were corrected for the wavelength dependent response of the R928 photomultiplier tube using a manufacturer generated correction file. Relative quantum yields are reported as the average of multiple measurements using multiple references, including Oxazine 1, Oxazine 170, and Rhodamine 101. Physicochemical Property Calculation. Physicochemical partition coefficients (Log D) values at pH 7.4, number of hydrogen bond donors and acceptors, polar surface area, and the number of rotatable bonds were calculated using Marvin and JChem calculator plugins (ChemAxon, Budapest, Hungary). Nerve-Specificity Screening using Direct/Topical Administration Each compound was screened for its tissue-specificity using a previously published direct/topical administration strategy in murine brachial plexus and sciatic nerves.^1 Each compound from the Oxazine library was formulated in the previously utilized co-solvent formulation (10% DMSO, 5% Kolliphor, 65% serum and 20% phosphate buffered saline) at 125 μM. 100 μL of the formulated Oxazine were incubated on the exposed brachial plexus or sciatic nerve for 5 minutes. The fluorophore containing solution was removed and the area was irrigated with saline 18 times to remove any unbound fluorophore. Co-registered fluorescence and color images were collected of each stained area 30 minutes after Oxazine direct/topical administration using a custom built macroscopic imaging system with 620/60 nm excitation and 700/75 nm bandpass emission filters. Custom written MatLab code was used to analyze the tissue specific fluorescence where regions of interest were selected on the nerve, muscle and adipose tissue using the white light images. These regions of interest were then analyzed on the co-registered matched fluorescence images permitting assessment of the nerve to muscle and nerve to adipose ratios in blinded manner. […]

| Molecule | Max Abs | Max Em | Max Ex | Extinction coefficient | Quantum yield |
| --- | --- | --- | --- | --- | --- |
| CCN1CCOc2cc3c(cc21)Oc1cc2c(cc1=N3)OCC[N+]=2CC [LGW05-73, 4,8-diethyl-3,8,9,10-tetrahydro-2H-bis([1,4]oxazino)[2,3-b:3′,2′-i]phenoxazin-4-ium] | 657 nm | 676 nm | 660 nm | 55570 M⁻¹ cm⁻¹ | 32.95% |
| CC/N=c1/cc2oc3cc4c(cc3nc-2cc1C)CCN4CC [LGW05-76, (Z)—N-(1-ethyl-7-methyl-2,3-dihydropyrrolo[3,2-b]phenoxazin-8(1H)-ylidene)ethanaminium] | 628 nm | 650 nm | 630 nm | 45449 M⁻¹ cm⁻¹ | 32.68% |
| CC/N=c1/cc2oc3cc(NCC)c(F)cc3nc-2cc1C [LGW05-81, (Z)—N-(7-(ethylamino)-8-fluoro-2-methyl-3H-phenoxazin-3-ylidene)ethanaminium] | 611 nm | 632 nm | 610 nm | 58410 M⁻¹ cm⁻¹ | 43.02% |
| CCNc1cc2oc3cc(=[N+](CC)CC)ccc-3nc2cc1F [LGW05-82, N-ethyl-N-(7-(ethylamino)-8-fluoro-3H-phenoxazin-3-ylidene)ethanaminium] | 636 nm | 661 nm | 640 nm | 36833 M⁻¹ cm⁻¹ | 2.70% |
| Cc1cc2nc3cc(C)c(=N)cc-3oc2cc1N [LGW06-14, 7-amino-2,8-dimethyl-3H-phenoxazin-3-iminium] | 590 nm | 606 nm | 590 nm | 39303 M⁻¹ cm⁻¹ | 37.61% |
| CCN1CCc2cc3c(cc21)Oc1cc2c(cc1=N3)CC[N+]=2CC [LGW07-59, 1,9-diethyl-2,3,7,8-tetrahydro-1H-dipyrrolo[3,2-b:2′,3′-i]phenoxazin-9-ium] | 649 nm | 665 nm | 655 nm | 51130 M⁻¹ cm⁻¹ | 32.17% |
| CCN(CC)c1ccc2nc3ccc(=[N+](CC)CC)cc-3oc2c1.[O-][Cl+3]([O-])([O-])[O-] [OX-1, reference compound] | 655 nm | 671 nm | 660 nm | 93211 M⁻¹ cm⁻¹ | 7.40% |
| (Z)—N-(7-(dimethylamino)-2-methyl-3H-phenoxazin-3-ylidene)ethanaminium [LGW04-84] | 637 nm | 658 nm | 640 nm | 50981 M⁻¹ cm⁻¹ | 3.95% |
| N-ethyl-N-(2,2,4,8-tetramethyl-1,2-dihydro-9H-pyrido[3,2-b]phenoxazin-9-ylidene)ethanaminium [LGW01-56] | 664 nm | 684 nm | 670 nm | 38832 M⁻¹ cm⁻¹ | 11.68% |
